From ChEMBL document CHEMBL3877309, “Determination of binding modes and binding constants for the complexes of 6H-pyrido[4,3-b]carbazole derivatives with DNA” (Bioorg Med Chem, 2017) come the findings set out here.

Calls of active or inactive are those of the source. No cut-off for these calls is given here.

For experiment [1], the system named is Salmonidae. As to the kind of experiment: Binding affinity to salmon sperm DNA assessed as DNA intercalation at 0.04 mole fraction after 5 mins by UV-Vis spectroscopic method.
A short description of experiment [2]: Binding affinity to synthetic biotin-labeled 30-mer GC-rich duplex DNA in pH 7.4 EDTA buffer solution assessed as dissociation rate constant in presence of 0.05 M NaCl at 25 degC by QCM sensogram analysis.
The nature of experiment [3]: Binding affinity to synthetic biotin-labeled 30-mer GC-rich duplex DNA in pH 7.4 EDTA buffer solution assessed as association rate constant in presence of 0.05 M NaCl at 25 degC by QCM sensogram analysis.
A short description of experiment [4]: Binding affinity to synthetic biotin-labeled 30-mer AT-rich duplex DNA in pH 7.4 EDTA buffer solution assessed as association rate constant in presence of 0.05 M NaCl at 25 degC by QCM sensogram analysis.
Experiment [5] in a line: Binding affinity to synthetic biotin-labeled 30-mer GC-rich duplex DNA in pH 7.4 EDTA buffer solution in presence of 0.05 M NaCl at 25 degC by QCM sensogram analysis.
Experiment [6] is described as follows: Binding affinity to synthetic biotin-labeled 30-mer GC-rich duplex DNA in pH 7.4 EDTA buffer solution assessed as ratio of association rate constant to dissociation rate constant in presence of 0.05 M NaCl at 25 degC by QCM sensogram analysis.
Experiment [7] can be described thus: Binding affinity to synthetic biotin-labeled 30-mer AT-rich duplex DNA in pH 7.4 EDTA buffer solution in presence of 0.05 M NaCl at 25 degC by QCM sensogram analysis.
Experiment [8] can be described thus: Binding affinity to synthetic biotin-labeled 30-mer AT-rich duplex DNA in pH 7.4 EDTA buffer solution assessed as dissociation rate constant in presence of 0.05 M NaCl at 25 degC by QCM sensogram analysis.
Experiment [9] is described as follows: Binding affinity to synthetic biotin-labeled 30-mer AT-rich duplex DNA in pH 7.4 EDTA buffer solution assessed as ratio of association rate constant to dissociation rate constant in presence of 0.05 M NaCl at 25 degC by QCM sensogram analysis.
Experiment [10] is described as follows: Binding affinity to synthetic biotin-labeled 30-mer GC-rich duplex DNA in pH 7.8 Tris-Hcl buffer solution assessed as dissociation rate constant in presence of 0.1 M NaCl at 25 degC by QCM sensogram analysis.
The nature of experiment [11]: Binding affinity to synthetic biotin-labeled 30-mer GC-rich duplex DNA in pH 7.8 Tris-Hcl buffer solution assessed as association rate constant in presence of 0.1 M NaCl at 25 degC by QCM sensogram analysis.
A short description of experiment [12]: Binding affinity to synthetic biotin-labeled 30-mer AT-rich duplex DNA in pH 7.8 Tris-Hcl buffer solution assessed as association rate constant in presence of 0.1 M NaCl at 25 degC by QCM sensogram analysis.
The nature of experiment [13]: Binding affinity to synthetic biotin-labeled 30-mer GC-rich duplex DNA in pH 7.8 Tris-Hcl buffer solution assessed as ratio of association rate constant to dissociation rate constant in presence of 0.1 M NaCl at 25 degC by QCM sensogram analysis.
Experiment [14] is described as follows: Binding affinity to synthetic biotin-labeled 30-mer AT-rich duplex DNA in pH 7.8 Tris-Hcl buffer solution assessed as ratio of association rate constant to dissociation rate constant in presence of 0.1 M NaCl at 25 degC by QCM sensogram analysis.
The nature of experiment [15]: Binding affinity to synthetic biotin-labeled 30-mer AT-rich duplex DNA in pH 7.8 Tris-Hcl buffer solution assessed as dissociation rate constant in presence of 0.1 M NaCl at 25 degC by QCM sensogram analysis.

For the molecule `Cc1c2cc[n+](C)cc2c(C)c2c1[nH]c1ccc(O)cc12`, the outcome in [1] was Active. The K was found to be 2.01 ×10⁻³ /s in [2], 1.28 ×10⁴ /M/s in [3], 0.78 ×10⁴ /M/s in experiment [4] and 8.05 ×10⁻³ /s in [8]. Also, the Ka in [5] turned out to be 47.2 ×10⁵ /M; in experiment [7] it was 35.1 ×10⁵ /M. For the same molecule, the Ratio in experiment [6] was determined as 6.37 ×10⁶ /M; in experiment [9], 0.97 ×10⁶ /M.

As for `CC[n+]1c(-c2ccccc2)c2cc(N)ccc2c2ccc(N)cc21`, the K in experiment [10] amounted to 210 ×10⁻³ /s; in experiment [11], 1.2 ×10⁴ /M/s; in experiment [12], 0.17 ×10⁴ /M/s; in experiment [15], 150 ×10⁻³ /s. Also, the figures for the Ratio in experiment [13] and in experiment [14] were 0.056 ×10⁶ /M and 0.011 ×10⁶ /M, respectively.
